{
  "source": "patent US20160375127A1",
  "about": "“Method of producing an inactivated lentivirus, especially HIV, vaccine, kit and method of use” (LABORATOIRE BIODIM, priority 2013, published 2016)",
  "key": {"HIV-1 LAV [1]": {"tested_on": "HIV-1 LAV", "experiment": "p24 titration of virus harvested from treated HeLa-LAV producer cells", "format": "cell-based", "conditions": "HeLa-LAV cells treated during virus production", "from_the_text": "(§1) In order to examine the infectivity of viruses produced in the presence of these various compounds, the supernatants were harvested, titrated for viral protein p24 release using the Alliance HIV-1 p24 Antigen ELISA (PerkinElmer, http://www.perkinelmer.com/) and titrated to measure the quantity of infectious particles per ml by infecting TZM-bl indicator cells (from the AIDS reagent program, NIH) expressing luciferase under a Tat-dependent promoter. Alternatively for titration of infectious particles, target cells for HIV-1 infection such as MT4 cells were used.\nas §1, with “2—Production of Viral particles in the presence of compounds. […] In” for “In”, “are” for “were”, “harvested, stored at −80° C. and” for “harvested,”, “cells” for “cells (from the AIDS reagent program, NIH)”, “are used as described above in 1a.” for “were used.”"}, "HIV-1 LAV [2]": {"tested_on": "HIV-1 LAV", "experiment": "Infectivity of virions from treated HeLa-LAV cells on TZM indicator cells, luciferase assay", "format": "cell-based", "from_the_text": "as §1\nas §1, with “2—Production of Viral particles in the presence of compounds. […] In” for “In”, “are” for “were”, “harvested, stored at −80° C. and” for “harvested,”, “cells” for “cells (from the AIDS reagent program, NIH)”, “are used as described above in 1a.” for “were used.”"}, "HIV-1 LAV [3]": {"tested_on": "HIV-1 LAV", "experiment": "Infectivity of virions from treated HeLa-LAV cells on MT4 cells, cytopathic assay CellTiter-Glo", "format": "cell-based", "conditions": "virus stock diluted up to 2000 times", "from_the_text": "as §1\n(§2) Usually 1/2000 dilution of the virus stock is used to infect MT4 target cells. Productive HIV-1 infection is determined after 5 days using the CellTiter-Glo® luminescent reagent (Promega, France) to quantify MT4 cell viability. Alternatively, productive infection can be estimated by quantitation of p24 antigen as described in paragraph 2 above."}, "HIV-1 Gag": {"tested_on": "HIV-1 Gag", "experiment": "Western blot of Gag maturation and CA p24 content in producer cell lysates and virions, anti-p24 antibody", "format": "cell-based", "conditions": "HeLa-LAV cell lysates and defective virions"}, "HIV-1 integrase": {"molecular_target": "T1, HIV-1 integrase (Human immunodeficiency virus type 1 group M subtype B, UniProt P12497)", "T1 construct": "Superdex 200 16/600 PG column for IN full length; made in house", "experiment": "Size exclusion chromatography of recombinant HIV-1 integrase on Superdex 200 PC 3.2/30", "format": "biochemical", "conditions": "untreated IN elutes as dimer, 64 KD MW; 8 μM IN with 20 μM compound", "protocol": "Multimerization of HIV-1 Integrase upon treatment with inactivating compounds was performed using size exclusion chromatography on a Superdex 200 PC 3.2/30 column (GE Healthcare), as described in the method section. Aldolase (158,000 MW), Conalbumin (75,000 MW), Carbonic Anhydrase (29,000 MW), and Ribonuclease A (13,700 MW) were used as protein markers for calibration.\nwas performed on a Superdex 200 PC 3.2/30 column (GE Healthcare) using an AKTA chromatography system (GE Healthcare) at 0.04 mL/min at room temperature. 20 μL of sample was injected on the column previously equilibrated in Integrase buffer (50 mM HEPES pH 7.5 containing 1M NaCl, 7 mM CHAPS, 5 mM MgCl2, 10% glycerol). 1 μM Compound was added to the mobile phase in order to avoid integrase-inhibitor dissociation during the separation."}, "HIV-1 NL4-3 [4]": {"tested_on": "HIV-1 NL4-3", "experiment": "Infectivity of NL4-3 virus from treated transfected 293T cells on MT4 cells, CellTiter-Glo", "format": "cell-based", "conditions": "293T transfection, compound 48 hours, supernatant diluted 2000 times, MT4 viability", "protocol": "FIG. 4: Infectivity of wt NL4-3 viruses harvested from 293T transfected cells after treatment with the indicated compounds and tested by infection of MT4 cells using the cytopathic assay CellTiter-Glo®.\n2 hours after transfection indicated compounds were added during virus production for 48 hours at the indicated concentrations. […] Viruses released in cell supernatants were harvested and tested for virus production by p24 assay, and virus infectivity by infection of MT4 cells and cytophatic assay using CellTiter-Glo® (Promega) according manufacturer's instructions.\n293T cells (2.2 10^6 cells) are transfected with plasmids harboring full length cloned HIV proviral DNA such as pNL4-3 or any other HIV proviral clone including autologous HIV molecular clones using DNA transfection reagent such as X-tremeGENE 9 reagent (Roche). Cells are washed 3 h later, trypsinized and diluted at 0.3 10^6 cells per ml. 5 10^5 cells in 1.6 ml fresh culture media are distributed into 6 wells plate and the volume is adjusted to 2 ml by adding 0.4 ml of media containing compounds and DMSO per well, or DMSO only as control. As reference compounds capable to fully inactivate HIV during virus production by producer cells, Protease inhibitors such as Indinavir or Saquinavir are used as additional controls. Final concentration for each compound, including reference protease inhibitor compounds, is kept equivalent to 5 times its EC50 concentration previously calculated into a multiple round assay as in (a) and DMSO is kept at 0.5% final concentration. Supernatants containing HIV virions are collected 48 h post-transfection and stored at −80° C. All Viral stocks are quantified for p24 antigen using the Alliance HIV-1 p24 Antigen ELISA (PerkinElmer, http://www.perkinelmer.com/) and titrated to measure the quantity of infectious particles per ml by infecting TZM-bl indicator cells.\nas §2, with “above. Full inactivation of the virus stock by compounds is estimated by results obtained in the presence of compound compared on the one hand to DMSO alone which indicates the 100% infectious virus stock (0% inactivation), and on the other hand to Protease inhibitor treatment which indicates the 100% virus stock inactivation.” for “above.”"}, "HIV-1 NL4-3 [5]": {"tested_on": "HIV-1 NL4-3", "experiment": "Western blot of NL4-3 virus lysates with anti-p24, anti-RT and anti-IN antibodies", "format": "cell-based", "conditions": "anti-IN, versus wt virus treated with DMSO"}, "HIV-1 NL4-3 [6]": {"tested_on": "HIV-1 NL4-3", "experiment": "CA p24 titration of NL4-3 virus produced by 293T cells in the presence of compound", "format": "cell-based", "conditions": "1 μM compound in 0.5% DMSO, 48 hours; untreated virus 19.6 μg/ml", "protocol": "The assay shown in FIG. 6 measures the concentration of whole virus particles (p24 ng/ml on the Y axis) captured on plates coated with various anti-HIV antibodies at three different concentrations as indicated in the X axis. […] As indicated, two different dilutions of each of these virus preparations were incubated in the antibody-coated plates with the indicated antibodies, for 1 hour. Unbound virions were removed by washing. Virions captured by the indicated antibodies were lysed and quantitated by p24 assay by ELISA (Innogenetics/Ingen, Ghent Belgium). The anti-HIV antibodies used were a neutralizing polyclonal IgG F6 Gri/Ii, an irrelevant IgG F6 Neg (negative control), two monoclonal anti-HIV Env antibodies, 2G12 (neutralizing) and 4B3 (non-neutralizing), and an irrelevant monoclonal antibody (Synagis) as negative control.\n(§3) To do so, HIV-1 NL4-3 virus was produced upon 293T cell transfection using Opti-Mem® reagent (Life Technologies) according manufacturer's instructions. […] Cell supernatants containing virus were ultracentrifuged through sucrose cushion. Virus pellets were resuspended in cell culture medium, aliquoted and titrated for CA p24 amount using anti-p24 antibody (Innotest HIV antigen/mAB Immunogenetics/Ingen Ghent, Belgium or Alliance® HIV-I p24 ELISA kit PerkinElmer)."}, "HIV-1 NL4-3 [7]": {"tested_on": "HIV-1 NL4-3", "experiment": "Check of inactivation: multiple-round infection assay of MT4 human cells during five days", "format": "cell-based", "conditions": "virus produced with 1 μM compound", "from_the_text": "as §3"}},
  "note": "“Also recorded” adds a separate entry of the source.",
  "data": [
    {"smiles": "Cc1nc2cc(-c3cccnc3)ccc2c(-c2ccc3c(c2)CCCO3)c1C(OC(C)(C)C)C(=O)O", "note": "(stereo not drawn) [MUT145212]", "values": [
      {"measurement": "amount of p24 produced", "setting": "HIV-1 LAV [1]; versus DMSO", "result": "comparable to that in the presence of DMSO"},
      {"measurement": "infectivity of viruses produced in the presence of compound", "setting": "HIV-1 LAV [2]", "result": "non-infectious"},
      {"measurement": "infectivity / cytopathic effect of viruses produced in the presence of compound", "setting": "HIV-1 LAV [3]", "result": "totally impaired for such cytopathic effect"},
      {"measurement": "perturbation of Gag maturation and CA p24 content", "setting": "HIV-1 Gag", "result": "could not detect any perturbation of Gag maturation and CA p24 content"},
      {"measurement": "MW at which HIV-1 integrase is eluted (IN tetramer)", "setting": "HIV-1 integrase", "result": 130, "unit": "KD MW"}
    ]},
    {"smiles": "Cc1nc2c(-c3cccc(C(N)=O)c3)cccc2c(-c2ccc3c(c2)CCCO3)c1C(OC(C)(C)C)C(=O)O", "note": "(stereo not drawn) [MUT145227]", "values": [
      {"measurement": "amount of p24 produced", "setting": "HIV-1 LAV [1]; versus DMSO", "result": "comparable to that in the presence of DMSO"},
      {"measurement": "infectivity of viruses produced in the presence of compound", "setting": "HIV-1 LAV [2]", "result": "non-infectious"},
      {"measurement": "infectivity / cytopathic effect of viruses produced in the presence of compound", "setting": "HIV-1 LAV [3]", "result": "totally impaired for such cytopathic effect"},
      {"measurement": "perturbation of Gag maturation and CA p24 content", "setting": "HIV-1 Gag", "result": "could not detect any perturbation of Gag maturation and CA p24 content"}
    ]},
    {"smiles": "Cc1nc2cc(C(N)=O)ccc2c(-c2ccc3c(c2)CCCO3)c1C(OC(C)(C)C)C(=O)O", "note": "(stereo not drawn) [MUT145240]", "values": [
      {"measurement": "MW at which HIV-1 integrase is eluted (IN tetramer)", "setting": "HIV-1 integrase", "result": 130, "unit": "KD MW"}
    ]},
    {"smiles": "Cc1nc2c(c(-c3ccc4c(c3)CCCO4)c1C(OC(C)(C)C)C(=O)O)CCCC2", "note": "(stereo not drawn) [MUT145509]", "values": [
      {"measurement": "amount of p24 produced", "setting": "HIV-1 LAV [1]; versus DMSO", "result": "comparable to that in the presence of DMSO"},
      {"measurement": "infectivity of viruses produced in the presence of compound", "setting": "HIV-1 LAV [2]", "result": "non-infectious"},
      {"measurement": "infectivity / cytopathic effect of viruses produced in the presence of compound", "setting": "HIV-1 LAV [3]", "result": "totally impaired for such cytopathic effect"},
      {"measurement": "perturbation of Gag maturation and CA p24 content", "setting": "HIV-1 Gag", "result": "could not detect any perturbation of Gag maturation and CA p24 content"},
      {"measurement": "inactivation of NL4-3 virus produced in the presence of compound", "setting": "HIV-1 NL4-3 [4]", "result": "inactivated"}
    ]},
    {"smiles": "Cc1sc(-c2ccncc2)c(C2=CCC(C)(C)CC2)c1[C@H](OC(C)(C)C)C(=O)O", "note": "[MUT148237]", "values": [
      {"measurement": "inactivation of NL4-3 virus produced in the presence of compound", "setting": "HIV-1 NL4-3 [4]", "result": "inactivated"},
      {"measurement": "protein content and maturation profile of treated virus", "setting": "HIV-1 NL4-3 [5]", "result": "protein content and maturation profile identical to wt virus; also recorded: exactly the same profile, with normal protein content and protein maturation than fully infectious virus"},
      {"measurement": "CA p24 titer of virus inactivated during production", "setting": "HIV-1 NL4-3 [6]", "result": 17.6, "unit": "µg/mL"},
      {"measurement": "excess of inactivated virus over untreated virus needed to infect 100,000 cells", "setting": "HIV-1 NL4-3 [7]", "result": "more than 10,000 times"},
      {"measurement": "extent of virus inactivation", "setting": "HIV-1 NL4-3 [7]", "result": "> 99.99", "unit": "%"},
      {"measurement": "amount of p24 of virus supernatant needed for infection of 50% of MT4 cells", "setting": "HIV-1 NL4-3 [7]; untreated virus 0.11 pg", "result": "5,139 pg"}
    ]},
    {"smiles": "Cc1nnc(C(=O)NC(C)(C)c2nc(C(=O)NCc3ccc(F)cc3)c(O)c(=O)n2C)o1", "note": "[Raltegravir, reference compound]", "values": [
      {"measurement": "infectivity of viruses produced in the presence of compound", "setting": "HIV-1 LAV [2]", "result": "comparable to viruses produced in the presence of DMSO"},
      {"measurement": "infectivity / cytopathic effect of viruses produced in the presence of compound", "setting": "HIV-1 LAV [3]", "result": "fully infectious"},
      {"measurement": "inactivation of NL4-3 virus produced in the presence of compound", "setting": "HIV-1 NL4-3 [4]", "result": "no effect"}
    ]},
    {"smiles": "CC(C)(C)NC(=O)[C@@H]1C[C@@H]2CCCC[C@@H]2CN1C[C@@H](O)[C@H](Cc1ccccc1)NC(=O)[C@H](CC(N)=O)NC(=O)c1ccc2ccccc2n1", "note": "[Saquinavir, reference compound]", "values": [
      {"measurement": "amount of p24 produced", "setting": "HIV-1 LAV [1]", "result": 30, "unit": "%"},
      {"measurement": "infectivity of viruses produced in the presence of compound", "setting": "HIV-1 LAV [2]", "result": "non infectious"},
      {"measurement": "infectivity / cytopathic effect of viruses produced in the presence of compound", "setting": "HIV-1 LAV [3]", "result": "totally impaired for such cytopathic effect"},
      {"measurement": "inactivation of NL4-3 virus produced in the presence of compound", "setting": "HIV-1 NL4-3 [4]", "result": "inactivated"},
      {"measurement": "protein content and maturation profile of treated virus", "setting": "HIV-1 NL4-3 [5]", "result": "strong defect in maturation"},
      {"measurement": "protein content and maturation profile of treated virus", "setting": "HIV-1 NL4-3 [5]; listed as saquinavir", "result": "strong defect in maturation and absence of RT and IN mature proteins"}
    ]}
  ]
}
